Data: BindingDB's records for doi:10.1016/s0167-0115(98)00050-0 (Uppsala University, 1998)

Legend:
[1] = biological target: Neuropeptide Y receptor type 4 (Homo sapiens, UniProt P50391)
[2] = biological target: Neuropeptide Y receptor type 4 (Rattus norvegicus, UniProt Q63447)
[3] = biological target: Pancreatic polypeptide receptor 1 (Sus scrofa, UniProt O97505)
Chain of Pancreatic polypeptide receptor 1 (O97505 whole entry): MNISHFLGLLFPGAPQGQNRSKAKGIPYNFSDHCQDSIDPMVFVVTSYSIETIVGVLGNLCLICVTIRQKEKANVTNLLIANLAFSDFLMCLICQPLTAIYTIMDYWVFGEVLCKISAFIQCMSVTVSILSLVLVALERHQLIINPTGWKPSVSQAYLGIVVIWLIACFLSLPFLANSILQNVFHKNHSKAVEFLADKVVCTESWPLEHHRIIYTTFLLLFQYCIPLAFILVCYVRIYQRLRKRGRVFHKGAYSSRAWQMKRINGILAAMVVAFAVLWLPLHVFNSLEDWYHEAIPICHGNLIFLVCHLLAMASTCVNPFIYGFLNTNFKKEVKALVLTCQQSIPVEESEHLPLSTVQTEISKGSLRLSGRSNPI

Chain of Neuropeptide Y receptor type 4 (Homo sapiens, UniProt P50391) (P50391 whole entry C240R): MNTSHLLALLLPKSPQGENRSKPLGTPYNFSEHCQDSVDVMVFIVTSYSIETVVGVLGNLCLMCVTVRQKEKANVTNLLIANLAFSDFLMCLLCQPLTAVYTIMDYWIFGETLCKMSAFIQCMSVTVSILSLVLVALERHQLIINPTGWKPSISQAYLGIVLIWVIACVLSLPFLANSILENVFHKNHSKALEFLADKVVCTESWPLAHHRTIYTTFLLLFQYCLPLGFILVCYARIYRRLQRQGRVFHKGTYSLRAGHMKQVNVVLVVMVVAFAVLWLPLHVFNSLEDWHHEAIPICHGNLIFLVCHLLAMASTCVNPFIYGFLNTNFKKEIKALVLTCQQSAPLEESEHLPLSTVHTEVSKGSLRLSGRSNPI
Chain of Neuropeptide Y receptor type 4 (Rattus norvegicus, UniProt Q63447) (Q63447 whole entry): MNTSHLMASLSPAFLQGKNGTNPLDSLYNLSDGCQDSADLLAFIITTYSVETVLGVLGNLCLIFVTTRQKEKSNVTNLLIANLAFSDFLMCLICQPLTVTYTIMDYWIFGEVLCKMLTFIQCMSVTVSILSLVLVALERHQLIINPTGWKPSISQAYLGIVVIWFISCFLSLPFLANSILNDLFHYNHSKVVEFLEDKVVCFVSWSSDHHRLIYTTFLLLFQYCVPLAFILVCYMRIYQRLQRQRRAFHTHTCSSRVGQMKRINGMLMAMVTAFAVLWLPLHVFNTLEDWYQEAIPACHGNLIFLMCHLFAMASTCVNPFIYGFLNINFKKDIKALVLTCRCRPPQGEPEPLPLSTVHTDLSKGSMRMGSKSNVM

H-APLEPEYPGDNATPEQMAQYAAELRRYINMLTRPRY-NH2 [CAS_59763-91-6]
Ki [1]: 0.031 nM
Ki [2]: 0.006 nM
Ki [3]: 0.013 nM

CC[C@H](C)[C@H](NC(=O)[C@H](Cc1ccc(O)cc1)NC(=O)[C@H](CCCNC(=N)N)NC(=O)[C@H](CCCNC(=N)N)NC(=O)[C@H](CC(C)C)NC(=O)[C@H](CC(=O)O)NC(=O)[C@H](C)NC(=O)[C@H](C)NC(=O)[C@H](Cc1ccc(O)cc1)NC(=O)[C@H](CCC(N)=O)NC(=O)[C@H](C)NC(=O)[C@H](CCSC)NC(=O)[C@H](CCC(N)=O)NC(=O)[C@H](CCC(=O)O)NC(=O)[C@@H]1CCCN1C(=O)[C@@H](NC(=O)[C@H](C)NC(=O)[C@H](CC(N)=O)NC(=O)[C@H](CC(=O)O)NC(=O)CNC(=O)[C@@H]1CCCN1C(=O)[C@H](Cc1ccc(O)cc1)NC(=O)[C@@H](NC(=O)[C@@H]1CCCN1C(=O)[C@H](CCC(=O)O)NC(=O)[C@H](CC(C)C)NC(=O)[C@@H]1CCCN1C(=O)[C@H](C)N)C(C)C)[C@@H](C)O)C(=O)N[C@@H](CC(N)=O)C(=O)N[C@@H](CCSC)C(=O)N[C@@H](CC(C)C)C(=O)N[C@H](C(=O)N[C@@H](CCCNC(=N)N)C(=O)N1CCC[C@H]1C(=O)N[C@@H](CCCNC(=N)N)C(=O)N[C@@H](Cc1ccc(O)cc1)C(N)=O)[C@@H](C)O [CAS_59763-91-6]
Ki [3]: 0.031 nM

CC[C@H](C)[C@H](NC(=O)[C@H](Cc1ccc(O)cc1)NC(=O)[C@H](CCCNC(=N)N)NC(=O)[C@H](CCCNC(=N)N)NC(=O)[C@H](CC(C)C)NC(=O)[C@H](CCC(N)=O)NC(=O)[C@@H](NC(=O)[C@H](CCC(=O)O)NC(=O)[C@H](Cc1ccc(O)cc1)NC(=O)[C@H](CCC(N)=O)NC(=O)[C@H](C)NC(=O)[C@H](CCCNC(=N)N)NC(=O)[C@H](CCC(N)=O)NC(=O)[C@H](CCC(=O)O)NC(=O)[C@H](Cc1c[nH]cn1)NC(=O)[C@@H](NC(=O)[C@H](C)NC(=O)[C@H](Cc1ccc(O)cc1)NC(=O)[C@H](CC(=O)O)NC(=O)CNC(=O)[C@@H]1CCCN1C(=O)[C@H](Cc1ccc(O)cc1)NC(=O)[C@H](CCSC)NC(=O)[C@@H]1CCCN1C(=O)[C@H](CCC(=O)O)NC(=O)[C@H](CC(C)C)NC(=O)[C@@H]1CCCN1C(=O)[C@H](C)N)[C@@H](C)O)[C@@H](C)O)C(=O)N[C@@H](CC(N)=O)C(=O)N[C@H](C(=O)N[C@@H](CC(C)C)C(=O)N[C@H](C(=O)N[C@@H](CCCNC(=N)N)C(=O)N1CCC[C@H]1C(=O)N[C@@H](CCCNC(=N)N)C(=O)N[C@@H](Cc1ccc(O)cc1)C(N)=O)[C@@H](C)O)[C@@H](C)O [NSC_41735]
Ki [1]: 0.071 nM
Ki [2]: 0.0027 nM
Ki [3]: 0.044 nM
